Source: PMC10287898 (2023)

What was measured:
Assay in all cases: ligand-induced self-cleavage, PAGE, SYBR Gold
[1] = test system: II-R1-7 (DNA, aptamer) CATGACCACTAGGAGCATCTTTGGCGATCCTCGTCAGATGGTGAAGCAGACGTTTGGCTAGGGGAATAAATCTTTGGGCACCTAGTGGTCATG; details: 100 mM NaCl, 40 mM MgCl2, 1 mM ZnCl2; 50 mM HEPES, pH 7.05; apparent, half-maximal cleavage
[2] = test system: II-R1-1 (DNA, aptamer) CATGACCACTAGGAGCATCTTTGGCGAGATCGGGAGAATCGGTGGCATTGGTGTCTCCTAGGGGAATAAATCTTTGGGCACCTAGTGGTCATG; details: 100 mM NaCl, 40 mM MgCl2, 1 mM ZnCl2; 50 mM HEPES, pH 7.05; apparent, half-maximal cleavage
[3] = test system: II-R1-3 (DNA, aptamer) CATGACCACTAGGAGCATCTTTGGCGAGAAGACTCTGGATTCGGGGACCAGTTGCTGCTAGGGGAATAAATCTTTGGGCACCTAGTGGTCATG; details: 100 mM NaCl, 40 mM MgCl2, 1 mM ZnCl2, 50 mM HEPES, pH 7.05; for KD: apparent, half-maximal cleavage, 0.1-100 μM ligand; for ligand-induced cleavage: 30 min

| SMILES | KD [1] | KD [2] | KD [3] | ligand-induced cleavage ([3]; tested at 100 μM, no cleavage induced) | ligand-induced cleavage ([3]; 100 μM, fraction cleaved 0.235 (L-Phe 0.325)) |
| --- | --- | --- | --- | --- | --- |
| N[C@@H](Cc1ccc(O)cc1)C(=O)O | 118.9 ± 11.7 µM | 71.6 ± 9.8 µM | 6.8 ± 0.7 µM | – | – |
| N[C@@H](Cc1ccccc1)C(=O)O | 19.3 ± 2.4 µM | 20.3 ± 1.6 µM | 4.8 ± 1.4 µM | – | – |
| N[C@H](Cc1ccccc1)C(=O)O | – | – | – | no | – |
| NC(Cc1ccc(F)cc1)C(=O)O (racemic) | – | – | – | – | yes |
